From patent publication US4757068A, “Lactams and bicyclic lactams useful as cholecystokinin antagonists” (Merck & Co., Inc., priority 1985, dated 1988)

Assays:
CCK receptor [1] = assay: 125I-CCK-33 receptor binding (pancreas or brain; tissue not stated); conditions: 125I-CCK-33; tissue (rat pancreas or guinea pig brain) not stated; read-out: inhibition of specific 125I-CCK-33 binding, IC50
Procedure: (§1) CCK-33 was radiolabeled with ^125 I-Bolton Hunter reagent (2000 Ci/mmole) as described by Sankara et al. (J. Biol. Chem. 254: 9349-9351, 1979). Receptor binding was performed according to Innis and Snyder (Proc. Natl. Acad. Sci. 77: 6917-6921, 1980) with the minor modification of adding the additional protease inhibitors, phenylmethane sulfonyl fluoride and o-phenanthroline.
(§2) Male Sprague-Dawley rats (200-350g) were sacrificed by decapitation. The whole pancreas was dissected free of fat tissue and was homogenized in 20 volumes of ice-cold 50 mM, Tris HCl (pH 7.7 at 25° C.) with a Brinkmann Polytron PT 10. The homogenates were centrifuged at 48,000 g for 10 min. Pellets were resuspended in Tris Buffer, centrifuged as above and resuspended in 200 volumes of binding assay buffer (50 mM Tris HCl, pH 7.7 at 25° C., 5 mM dithriothriethel, 0.1 mM bacitracin, 1.2 mM phenylmethane sulfonyl fluoride, and 0.5 mM phenathroline). […] All assays were run in duplicate or triplicate. The reaction mixtures were incubated at 37° C. for 30 minutes and centrifuged in a Beckman Microfuge (4 minutes) immediately after adding 1 ml of ice-cold incubation buffer. The supernatant was aspirated and discarded, pellets were counted with a Beckman gamma 5000.
(§3) CCK-33 was radiolabeled and the binding was performed according to the description for the pancreas method with modifications according to Saito et al. (J. Neurochem., 37, 483-490 (1981)).
(§4) Male Hartley guinea pigs (300-500g) were sacrificed by decapitation and the brains were removed and placed in ice-cold 50 mM, Tris HCl plus 7.58 g/l Tritma-7.4 (pH 7.4 at 25° C.) Cerebral cortex was dissected and used as a receptor source. Each gram of fresh guinea pig brain tissue was homogenized in 10 ml of Tris/Trizma buffer with a Brinkman polytron PT-10. The homogenates were centrifuged at 42,000 g for 15 min. Pellets were resuspended in Tris Buffer, centrifuged as above and resuspended in 200 volumes of binding assay buffer (10 mM HEPES, pH 7.7 at 25° C., 5 mM MgCl2, 1 mM EGTA, 0.4% BSA (bovine serum albumin), and 0.25 mg/ml bacitracin). […] All assays were run in duplicate or triplicate. The reaction mixtures were incubated at 25° C. for 2 hours and centrifuged in a Beckman Microfuge (4 minutes) immediately after adding 1 ml of ice-cold incubation buffer. The supernatant was aspirated and discarded, pellets were counted with a Beckman gamma 5000.

CCK receptor [2] = conditions: various members of the cyclic nucleotide class, literature; cited from earlier work
CCK receptor [3] = target: T1, CCK receptor (Rattus norvegicus, UniProt P30551); assay: 125I-CCK-33 receptor binding (pancreas or brain; tissue not stated); conditions: added protease inhibitors in binding buffer
T1 construct: from tissue
T1 sequence (P30551 1-444): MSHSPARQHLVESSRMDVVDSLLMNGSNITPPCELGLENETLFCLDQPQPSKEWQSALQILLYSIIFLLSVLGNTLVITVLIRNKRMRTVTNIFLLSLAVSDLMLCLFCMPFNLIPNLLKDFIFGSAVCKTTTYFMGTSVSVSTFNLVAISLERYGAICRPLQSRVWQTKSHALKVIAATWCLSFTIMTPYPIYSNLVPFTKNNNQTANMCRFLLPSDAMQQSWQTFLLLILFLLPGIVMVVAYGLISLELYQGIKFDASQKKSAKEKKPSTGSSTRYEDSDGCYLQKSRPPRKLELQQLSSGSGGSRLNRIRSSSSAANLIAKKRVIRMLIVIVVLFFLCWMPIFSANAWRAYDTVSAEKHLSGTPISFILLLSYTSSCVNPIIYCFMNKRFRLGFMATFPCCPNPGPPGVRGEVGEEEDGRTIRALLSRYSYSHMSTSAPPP
Procedure: as §1, §2, §3, §4

SMILES | IC50 (CCK receptor [1]) | effect on the 125I-CCK receptor binding assay (CCK receptor [3]) | also measured
CCOC(=O)C(CCc1ccccc1)NC1CCCC(c2ccccc2)N(CC(=O)OC)C1=O (single isomer, unassigned) [1-Carbomethoxymethyl-3-(1-carbethoxy-3-phenylpropyl)amino-7-phenylperhydroazepin-2-one] | 32 µM | – | –
COC(=O)CN1C(=O)C(C)(NC(CCc2ccccc2)C(=O)OC)CCc2ccccc21 (centres unmarked) [1-Carbomethoxymethyl-3-(1-carbomethoxy-3-phenylpropyl)amino-3-methyl homodihydrocarbostyril] | 72 µM | – | –
CCCC(=O)Nc1nc2c(ncn2[C@@H]2O[C@@H]3COP(=O)(O)O[C@H]3[C@H]2OC(=O)CCC)c(=O)[nH]1 [dibutyryl cyclic GMP] | – | – | potency rank among cyclic nucleotide CCK antagonists (CCK receptor [2]): most potent
c1cnc2c(c1)ccc1cccnc12 [o-phenanthroline] | – | no effect | –
O=S(=O)(F)Cc1ccccc1 [phenylmethane sulfonyl fluoride] | – | no effect | –
